Test results taken from article PMC6175941, “Hydrophobic alkyl chains substituted to the 8-position of cyclic nucleotides enhance activation of CNG and HCN channels by an intricate enthalpy - entropy compensation” (Scientific Reports, 2018).

Tests used:
Assay type in all cases: cell-based
[1] = molecular target: T1, homotetrameric CNGA2 channels (Rattus norvegicus, UniProt Q00195); test: Concentration-activation relationship of homotetrameric CNGA2 channels, inside-out patches of Xenopus oocytes
T1 construct: expressed in transfected cells; host or cells: Xenopus laevis oocytes injected with cRNA; inside-out patches
T1 sequence (Q00195 1-664): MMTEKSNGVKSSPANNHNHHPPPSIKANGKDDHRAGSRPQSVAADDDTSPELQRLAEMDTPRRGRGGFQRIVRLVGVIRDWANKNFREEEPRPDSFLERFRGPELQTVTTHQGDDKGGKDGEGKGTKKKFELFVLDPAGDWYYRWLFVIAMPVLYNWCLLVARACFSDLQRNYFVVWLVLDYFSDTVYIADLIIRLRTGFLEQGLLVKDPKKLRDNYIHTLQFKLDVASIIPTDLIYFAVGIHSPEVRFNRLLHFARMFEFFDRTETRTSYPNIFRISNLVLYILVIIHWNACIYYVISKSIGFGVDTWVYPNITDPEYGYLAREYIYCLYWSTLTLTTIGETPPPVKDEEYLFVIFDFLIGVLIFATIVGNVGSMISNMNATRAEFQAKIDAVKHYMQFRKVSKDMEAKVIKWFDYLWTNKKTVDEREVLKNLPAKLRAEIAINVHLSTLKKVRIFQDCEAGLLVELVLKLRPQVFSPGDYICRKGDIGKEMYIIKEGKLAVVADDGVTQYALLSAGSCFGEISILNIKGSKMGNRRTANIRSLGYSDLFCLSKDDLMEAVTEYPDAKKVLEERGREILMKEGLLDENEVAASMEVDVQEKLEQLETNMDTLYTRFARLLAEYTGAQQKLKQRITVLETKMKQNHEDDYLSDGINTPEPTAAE
Protocol: (§1) For each cNMP derivative a complete concentration-activation relationship was recorded, and the data points were fitted with the Hill equation (equation 1) yielding the concentration of half maximum activation (EC50) and the Hill coefficient H (Fig. 1b,c).
(§2) The subunits CNGA2 (accession No. AF126808), CNGA4 (accession No. U12623) and CNGB1b (accession No. AF068572) of rat olfactory channels as well as mouse HCN2 channels (NM008226) were subcloned in front of the T7 promoter of pGEMHEnew. The respective cRNAs were produced by using the mMESSAGE mMACHINE T7 Kit (Ambion, Austin, TX).
(§3) Oocytes at stages IV and V were injected with 50–130 ng of cRNA encoding either CNGA2, CNGA2:CNGA4:CNGB1b (2:1:1 ratio) or HCN2 channels either manually of or by means of an injection robot (RoboInject®). The injected oocytes were incubated at 18 °C for up to 6 days in Barth’s solution containing (in mM) 84 NaCl, 1 KCl, 2.4 NaHCO3, 0.82 MgSO4, 0.41 CaCl2, 0.33 Ca(NO3)2, 7.5 TRIS, cefuroxime (4.0 µg × ml^−1), and penicillin/streptomycin (100 µg × ml^−1), pH 7.4.
(§4) Macroscopic currents were recorded from inside-out patches of the oocytes by using standard patch-clamp techniques. The patch pipettes were pulled from quartz tubing (P-2000, Sutter Instrument, Novato, USA) with an outer and inner diameter of 1.0 and 0.7 mm (VITROCOM, New Jersey, USA). The corresponding pipette resistance was 0.9–2.3 MΩ. The bath and pipette solution contained (in mM): 150 KCl, 1 EGTA, 5 Hepes (pH 7.4 with KOH) for CNG measurements. For HCN measurements the bath solution contained 100 mM KCl, 10 mM EGTA, 10 mM HEPES (pH 7.2) and 120 mM KCl, 10 mM HEPES, and 1.0 mM CaCl2 (pH 7.2) in the pipette. Recording was carried out at room temperature using an Axopatch 200B amplifier (Axon Instruments, Foster City, CA). Electrophysiology was controlled by the Patchmaster-software (HEKA Elektronik Dr. Schulze GmbH, Lambrecht, Germany). The sampling rate was 5 kHz and the filter implemented in the amplifier (4-pole Bessel) was set to 2 kHz. Measurements in HCN2 channels were generally started 3.5 min after patch excision to minimize channel run down during the measurement[14],[27],[70]. The solutions with the ligand concentrations to be tested were applied via a multi-barrel device to the patches with a flow rate of 0.8 to 1.2 ml/min.
(§5) I is the actual current amplitude and Imax the maximum current amplitude at a saturating cNMP concentration specified for each cNMP and channel. EC50 is the cNMP concentration generating the half maximum current and H the Hill coefficient.

[2] = molecular target: T2, heterotetrameric CNGA2:CNGA4:CNGB1b channels (Rattus norvegicus, UniProt A0A8I5ZN27+Q00195+Q64359); test: Concentration-activation relationship of heterotetrameric CNGA2:CNGA4:CNGB1b channels, inside-out patches of Xenopus oocytes
T2 construct: expressed in transfected cells; host or cells: Xenopus laevis oocytes co-injected with cRNAs (2:1:1); inside-out patches
T2 sequence (Q64359 whole entry, one chain of several): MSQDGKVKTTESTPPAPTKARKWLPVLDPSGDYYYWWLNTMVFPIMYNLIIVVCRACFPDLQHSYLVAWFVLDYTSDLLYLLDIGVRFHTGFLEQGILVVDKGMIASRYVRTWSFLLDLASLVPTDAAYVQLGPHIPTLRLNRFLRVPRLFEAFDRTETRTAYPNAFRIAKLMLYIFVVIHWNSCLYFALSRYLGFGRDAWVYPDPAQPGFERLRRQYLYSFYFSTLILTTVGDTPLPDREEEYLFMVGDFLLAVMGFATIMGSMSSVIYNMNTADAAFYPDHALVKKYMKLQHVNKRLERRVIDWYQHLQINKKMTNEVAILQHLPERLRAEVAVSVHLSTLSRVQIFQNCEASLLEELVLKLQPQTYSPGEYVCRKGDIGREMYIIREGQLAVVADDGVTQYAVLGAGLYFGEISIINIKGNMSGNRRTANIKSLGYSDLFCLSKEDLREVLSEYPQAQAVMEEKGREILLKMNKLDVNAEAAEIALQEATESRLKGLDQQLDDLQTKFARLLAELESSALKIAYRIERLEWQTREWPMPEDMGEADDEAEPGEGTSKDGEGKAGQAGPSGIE
T2 sequence (A0A8I5ZN27 1-858 isoform A0A8I5ZN27-2, one chain of several): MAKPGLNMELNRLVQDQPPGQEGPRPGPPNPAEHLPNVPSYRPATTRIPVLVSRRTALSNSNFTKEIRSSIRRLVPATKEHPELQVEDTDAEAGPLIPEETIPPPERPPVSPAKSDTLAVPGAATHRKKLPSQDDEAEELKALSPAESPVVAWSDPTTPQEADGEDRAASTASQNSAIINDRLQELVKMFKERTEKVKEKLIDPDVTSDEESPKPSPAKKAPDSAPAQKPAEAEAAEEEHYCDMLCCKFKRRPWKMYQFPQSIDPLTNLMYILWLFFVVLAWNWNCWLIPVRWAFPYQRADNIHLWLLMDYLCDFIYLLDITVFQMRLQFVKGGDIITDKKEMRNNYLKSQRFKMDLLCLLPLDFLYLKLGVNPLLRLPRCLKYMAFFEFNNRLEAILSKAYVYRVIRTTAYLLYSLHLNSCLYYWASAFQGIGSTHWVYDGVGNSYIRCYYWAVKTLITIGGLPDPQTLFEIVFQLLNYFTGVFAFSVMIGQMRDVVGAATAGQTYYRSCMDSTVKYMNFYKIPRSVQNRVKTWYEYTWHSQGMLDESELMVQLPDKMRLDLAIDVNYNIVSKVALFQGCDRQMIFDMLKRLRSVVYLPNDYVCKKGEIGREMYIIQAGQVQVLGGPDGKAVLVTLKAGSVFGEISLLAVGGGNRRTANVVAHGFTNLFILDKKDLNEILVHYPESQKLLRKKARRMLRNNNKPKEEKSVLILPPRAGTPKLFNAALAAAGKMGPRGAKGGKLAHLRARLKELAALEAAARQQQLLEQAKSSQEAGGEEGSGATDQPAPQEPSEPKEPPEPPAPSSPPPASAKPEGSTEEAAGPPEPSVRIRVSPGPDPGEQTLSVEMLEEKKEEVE
Protocol: as §1, §2, §3, §4, §5

[3] = molecular target: T3, homotetrameric HCN2 channels (Mus musculus, UniProt O88703); test: Concentration-activation relationship of homotetrameric HCN2 channels, inside-out patches of Xenopus oocytes; details: for H (Hill coefficient) / EC50: homotetrameric HCN2 channels, mean; for EC50: pre-activation at -130 mV, instantaneous current at -100 mV
T3 construct: expressed in transfected cells; host or cells: Xenopus laevis oocytes injected with cRNA; inside-out patches
T3 sequence (O88703 1-863): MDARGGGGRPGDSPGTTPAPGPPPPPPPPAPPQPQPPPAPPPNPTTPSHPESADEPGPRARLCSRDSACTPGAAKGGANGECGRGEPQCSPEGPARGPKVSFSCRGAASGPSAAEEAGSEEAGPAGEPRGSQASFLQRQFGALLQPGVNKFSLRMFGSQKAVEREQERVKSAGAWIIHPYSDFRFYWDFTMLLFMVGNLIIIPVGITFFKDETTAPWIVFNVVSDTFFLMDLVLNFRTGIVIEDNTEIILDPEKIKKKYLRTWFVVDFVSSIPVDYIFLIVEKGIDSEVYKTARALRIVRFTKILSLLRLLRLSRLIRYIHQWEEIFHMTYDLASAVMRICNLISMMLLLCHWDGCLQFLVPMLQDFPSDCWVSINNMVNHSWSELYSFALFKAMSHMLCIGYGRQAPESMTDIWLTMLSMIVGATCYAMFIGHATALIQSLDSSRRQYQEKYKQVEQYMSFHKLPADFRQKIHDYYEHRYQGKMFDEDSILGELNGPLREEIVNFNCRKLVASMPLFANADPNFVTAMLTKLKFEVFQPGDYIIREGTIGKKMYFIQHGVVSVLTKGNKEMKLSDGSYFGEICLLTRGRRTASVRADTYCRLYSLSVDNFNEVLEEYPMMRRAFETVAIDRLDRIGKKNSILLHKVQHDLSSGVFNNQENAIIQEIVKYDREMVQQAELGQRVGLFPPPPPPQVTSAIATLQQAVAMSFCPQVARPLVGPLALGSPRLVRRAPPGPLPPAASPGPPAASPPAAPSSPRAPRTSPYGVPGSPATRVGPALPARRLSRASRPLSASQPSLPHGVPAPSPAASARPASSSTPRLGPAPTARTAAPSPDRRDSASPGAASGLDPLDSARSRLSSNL
Protocol: as §2
as §3, with “The oocytes were exposed to collagenase A (3 mg/ml; Roche, Grenzach-Wyhlen, Germany) for 105 min in Ca^2+-free Barth’s solution containing (in mM) 82.5 NaCl, 2 KCl, 1 MgCl2 2, and 5 Hepes, pH 7.4. Oocytes” for “Oocytes”
as §4, §5

[4] = homotetrameric CNGA2 channels, late current at +10 mV, mean
[5] = homotetrameric CNGA2 channels, mean
[6] = heterotetrameric CNGA2:CNGA4:CNGB1b channels, late current at +10 mV, mean
[7] = heterotetrameric CNGA2:CNGA4:CNGB1b channels, mean
[8] = CNGA2 channels, numeric mean values of box plots (Fig. 2a,b, Fig. 3) and text
[9] = fit of the concentration-activation relationship shown in Fig. 1b, CNGA2 channels
[10] = fit of the concentration-activation relationship shown in Fig. 1c, CNGA2:CNGA4:CNGB1b channels

SMILES	EC50 [1, 4]	H (Hill coefficient) [1, 5]	EC50 [2, 6]	H (Hill coefficient) [2, 7]	also measured
CC(=O)NCC(=O)NCCSc1nc2c(=O)[nH]c(N)nc2n1C1OC2COP(=O)(O)OC2C1O (centres unmarked) [10G, 8-(Ac)AGET-cGMP]	340 nM	2.6	630 nM	1.9	–
NCCCCCCCCCCSc1nc2c(=O)[nH]c(N)nc2n1C1OC2COP(=O)(O)OC2C1O (centres unmarked) [6G, 8-ADT-cGMP]	60 nM	1.8	300 nM	1.6	–
CC(=O)NCC(=O)NCC(=O)NCCSc1nc2c(N)ncnc2n1C1OC2COP(=O)(O)OC2C1O (centres unmarked) [11A, 8-(Ac)AGGET-cAMP]	29400 nM	1.9	5100 nM	2.5	EC50 [1, 8]: 29400 nM
NCCCCCCSc1nc2c(=O)[nH]c(N)nc2n1C1OC2COP(=O)(O)OC2C1O (centres unmarked) [4G, 8-AHT-cGMP]	90 nM	2.5	620 nM	1.3	–
Nc1nc2c(ncn2C2OC3COP(=O)(O)OC3C2O)c(=O)[nH]1 (centres unmarked) [1G, cGMP, reference compound]	1800 nM	2.6	1300 nM	2.5	EC50 [1, 9]: 1470 nM; H [1, 9]: 2.52; EC50 [2, 10]: 1240 nM; H [2, 10]: 2.09
Nc1ncnc2c1ncn2C1OC2COP(=O)(O)OC2C1O (centres unmarked) [1A, cAMP, reference compound]	–	–	–	–	H ([3]; individual experiment, Fig. 5b, HCN2 channels): 1.28
CC(=O)NCC(=O)NCCSc1nc2c(N)ncnc2n1C1OC2COP(=O)(O)OC2C1O (centres unmarked) [10A, 8-(Ac)AGET-cAMP]	34200 nM	2.1	6600 nM	2.2	EC50 [1, 8]: 34300 nM; H (Hill coefficient) [3]: 1.5; EC50 [3]: 96.7 nM
NCCCCCCCCCCSc1nc2c(N)ncnc2n1C1OC2COP(=O)(O)OC2C1O (centres unmarked) [6A, 8-ADT-cAMP]	630 nM	2.3	290 nM	3.9	effect at high concentration ([2]; CNGA2:CNGA4:CNGB1b channels, at concentrations > 2 µM): unusual inhibition
CC(=O)NCCOCCOCCSc1nc2c(=O)[nH]c(N)nc2n1C1OC2COP(=O)(O)OC2C1O (centres unmarked) [8G, 8-(Ac)APT-cGMP]	550 nM	2.7	1100 nM	1.6	–
CC(=O)NCCCCCCSc1nc2c(N)ncnc2n1C1OC2COP(=O)(O)OC2C1O (centres unmarked) [5A, 8-(Ac)AHT-cAMP]	1400 nM	3.1	950 nM	2.5	H (Hill coefficient) [3]: 0.8; EC50 [3]: 19.7 nM
NCCSc1nc2c(N)ncnc2n1C1OC2COP(=O)(O)OC2C1O (centres unmarked) [2A, 8-AET-cAMP]	–	1.8	13300 nM	–	agonist type ([1]; CNGA2 channels): partial agonist; EC50 [1, 8]: 128000 nM
CC(=O)NCCOCCOCCC(=O)NCCSc1nc2c(N)ncnc2n1C1OC2COP(=O)(O)OC2C1O (centres unmarked) [9A, 8-(Ac)APET-cAMP]	46200 nM	2.3	7100 nM	2.2	–
NCCSc1nc2c(=O)[nH]c(N)nc2n1C1OC2COP(=O)(O)OC2C1O (centres unmarked) [2G, 8-AET-cGMP]	–	2.4	1500 nM	1.8	EC50 [1, 8]: 830 nM
CC(=O)NCCCCCCCCCCSc1nc2c(=O)[nH]c(N)nc2n1C1OC2COP(=O)(O)OC2C1O (centres unmarked) [7G, 8-(Ac)ADT-cGMP]	50 nM	2.2	140 nM	1.9	–
NCCCCCCSc1nc2c(N)ncnc2n1C1OC2COP(=O)(O)OC2C1O (centres unmarked) [4A, 8-AHT-cAMP]	3100 nM	2.3	1400 nM	2.5	–
CC(=O)NCCSc1nc2c(=O)[nH]c(N)nc2n1C1OC2COP(=O)(O)OC2C1O (centres unmarked) [3G, 8-(Ac)AET-cGMP]	–	1.8	280 nM	2.0	EC50 [1, 8]: 170 nM
CC(=O)NCC(=O)NCC(=O)NCCSc1nc2c(=O)[nH]c(N)nc2n1C1OC2COP(=O)(O)OC2C1O (centres unmarked) [11G, 8-(Ac)AGGET-cGMP]	330 nM	2.4	1000 nM	1.7	–
CC(=O)NCCOCCOCCC(=O)NCCSc1nc2c(=O)[nH]c(N)nc2n1C1OC2COP(=O)(O)OC2C1O (centres unmarked) [9G, 8-(Ac)APET-cGMP]	520 nM	2.3	1100 nM	2.0	–
